Reference: patent US10688088B2 (priority 2015, dated 2020)

Tested on: M. tuberculosis H37 Rv (ATCC 27294)
Test: MIC determination in medium 7H9 by Alamar Blue (MABA) method and FIC synergism, standard strain H37Rv
Assay type: cell-based, Mycobacterium tuberculosis

`O=C(O)c1cn(C2CC2)c2cc(N3CCNCC3)c(F)cc2c1=O` [CPX, ciprofloxacin] was tested, and the “MIC 1: MIC of the substance tested alone” value was 0.62 and the “MIC 2: MIC of the substance tested in combination” value (“MIC 2: MIC of the substance tested” below) (combination MEF + CPX) was 0.62.
For `CC[C@@H](CO)NCCN[C@@H](CC)CO` [ETB, ethambutol], the “MIC 1: MIC of the substance tested alone” value was 1.25 and the “MIC 2: MIC of the substance tested” value (combination MFL + ETB) was 1.25.
For `COc1c(N2CCNC(C)C2)c(F)cc2c(=O)c(C(=O)O)cn(C3CC3)c12` (centres unmarked) [GAT, gatifloxacin], the “MIC 1: MIC of the substance tested alone” value was 0.12 and the “MIC 2: MIC of the substance tested” value (combination MFL + GAT) was 0.12.
For `NNC(=O)c1ccncc1` [INH, isoniazid], the “MIC 1: MIC of the substance tested alone” value was 0.20 and the “MIC 2: MIC of the substance tested” value (combination MFL + INH) was 0.10.
In the case of `C[C@H]1COc2c(N3CCN(C)CC3)c(F)cc3c(=O)c(C(=O)O)cn1c23` [LVX, levofloxacin], the “MIC 1: MIC of the substance tested alone” value is reported as 0.62 and the “MIC 2: MIC of the substance tested” value (combination MEF + LVX) is reported as 0.62.
With `CC(=O)NC[C@H]1CN(c2ccc(N3CCOCC3)c(F)c2)C(=O)O1` [LYN, linezolid] the “MIC 1: MIC of the substance tested alone” value was 0.62 and the “MIC 2: MIC of the substance tested” value (combination MFL + LYN) was 0.62.
With `COc1c(N2C[C@@H]3CCCN[C@@H]3C2)c(F)cc2c(=O)c(C(=O)O)cn(C3CC3)c12` [MOX, moxifloxacin] the “MIC 1: MIC of the substance tested alone” value was 0.25 and the “MIC 2: MIC of the substance tested” value (combination MFL + MOX) was 0.15.
`OC(c1cc(C(F)(F)F)nc2c(C(F)(F)F)cccc12)C1CCCCN1` (centres unmarked) [Mefloquine, mefloquine] was tested, and the “MIC 2: MIC of the substance tested” value (combination MEF + CPX) was 0.62, the “MIC 2: MIC of the substance tested” value (combination MEF + LVX) was 0.62 and the “MIC 2: MIC of the substance tested” value (combination MFL + GAT) was 0.12. The “MIC 2: MIC of the substance tested” value (combination MFL + INH) was 0.10, the “MIC 2: MIC of the substance tested” value (combination MFL + LYN) was 0.62 and the “MIC 2: MIC of the substance tested” value (combination MFL + MOX) was 0.15. For the same molecule, the “MIC 2: MIC of the substance tested” value (combination MFL + OFX) was 0.62, the “MIC 2: MIC of the substance tested” value (combination MFL + PYR) was 3.12 and the “MIC 2: MIC of the substance tested” value (combination MFL + SPR) was 0.12.
With `CC1COc2c(N3CCN(C)CC3)c(F)cc3c(=O)c(C(=O)O)cn1c23` (centres unmarked) [OFX, ofloxacin] the “MIC 1: MIC of the substance tested alone” value was 1.25 and the “MIC 2: MIC of the substance tested” value (combination MFL + OFX) was 0.62.
In the case of `NC(=O)c1cnccn1` [PYR, pyrazinamide], the “MIC 1: MIC of the substance tested alone” value is reported as 100 and the “MIC 2: MIC of the substance tested” value (combination MFL + PYR) is reported as 3.12.
In the case of `C[C@@H]1CN(c2c(F)c(N)c3c(=O)c(C(=O)O)cn(C4CC4)c3c2F)C[C@H](C)N1` [SPR, sparfloxacin], the “MIC 1: MIC of the substance tested alone” value is reported as 0.12 and the “MIC 2: MIC of the substance tested” value (combination MFL + SPR) is reported as 0.12.
